# Results published in PMC12392461, “Beyond Estrogenicity: A Comparative Assessment of Bisphenol A and Its Alternatives in In Vitro Assays Questions Safety of Replacements” (Environmental Science & Technology, 2025).
# Like-named read-outs stand apart in the source and are kept apart here.
# Key:
# [1] = target: T1, Peroxisome proliferator-activated receptor γ (Homo sapiens, UniProt P37231); experiment: cell-based; conditions: for EC10, linear / logEC10: PPARγ bioassay, dosing range all; for EC10, linear: linear model; for logEC10: log-logistic model
# T1 sequence (P37231 238-505 limits assumed): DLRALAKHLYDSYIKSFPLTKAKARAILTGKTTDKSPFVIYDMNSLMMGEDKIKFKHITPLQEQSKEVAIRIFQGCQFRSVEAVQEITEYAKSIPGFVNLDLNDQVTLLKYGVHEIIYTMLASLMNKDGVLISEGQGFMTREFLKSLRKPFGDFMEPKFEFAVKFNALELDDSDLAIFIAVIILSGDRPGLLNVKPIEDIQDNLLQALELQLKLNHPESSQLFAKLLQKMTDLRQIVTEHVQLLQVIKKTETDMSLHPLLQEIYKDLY
# Source text: (§1) All bioassay media components and the ERα-UAS-bla GripTite and PPARγ-UAS-bla cells were obtained from Thermo Fisher Scientific (Waltham, MA, USA). AREc32 reporter gene cells based on MCF7 were provided by C. Roland Wolf (Cancer Research UK); AhR CALUX cells (H4L7.5c2 derived from H4IIe) were provided by Michael Denison (UC Davis, USA); and SH-SY5Y cells were purchased from Sigma-Aldrich.
# (§2) Cell culture conditions and bioassay protocols including response detection are provided in Text S2.1–2.4 and Table S3. − Cell viability was determined from cell confluency using an IncuCyte S3 Live-Cell Analysis System (Sartorius AG, Essen, Germany) before and after exposure, except for SH-SY5Y cells (live–dead staining with Nuclear Green LcS1 and propidium iodide, Abcam, UK). For metabolic activation experiments, cell viability was assessed using the ToxBLAzer DualScreen Kit (Thermo Fisher Scientific) to capture the remaining toxicity in ERα-UAS-bla GripTite after treatment with the aCYP catalyst (details in Text S2.4).
# For ARE, the concentration that triggered an induction ratio of 1.5 (ECIR1.5) was used as the benchmark value, as detailed in Text S2.5. IC10 values also served as a threshold for data analysis in all assays; only concentrations below IC10 were considered when deriving EC10 or ECIR1.5.
# The maximum efficacy (Emax%) refers to the maximum of the log–logistic concentration–response curve attained by test chemicals compared to the reference chemical’s maximum and was obtained for both ERα and PPARγ. […]
# (§3) S2: Cell culture and bioassays
# (§4) S2.1: Cell Culturing Conditions
# (§5) All suppliers and sources are given in detail in SI-Excel S3. The bioassay media for the different assays were prepared as follows: Assay medium for ER alpha-UAS-bla GripTite (ERα) and […]
# 2% charcoal-stripped FBS, and 100 U/mL penicillin-streptomycin. […]
# (§6) S2.2: Cell Seeding and Incubation. For all bioassays, cell suspensions in the respective assay medium were dispensed into each well of 384-well plates using a MultiFlo Dispenser (Biotek, (now Agilent), Winooski, VT, U.S.). After seeding, the plates were incubated at 37° C and 5% CO₂ for […]. The final cell densities and plate types were as follows: Black poly-D-lysine […]
# 6500 cells/well, ERα: 5000 cells/well. White 384-well plates with a clear bottom (Product No. […]
# S2.3: Chemical Dosing and Assay Analysis Procedures.
# [2] = system: Mitochondrial Membrane Potential; experiment: cells; conditions: for EC10, linear / logEC10: MMP bioassay, dosing range all; for EC10, linear: linear model; for logEC10: log-logistic model; for Specificity ratio (SRbaseline) SRMMP: against baseline cytotoxicity; for Specificity ratio (SRcytotoxicity) SRMMP: human, 24 h; for Relative effect potency REPMMP: relative to BPA
# Source text: as §1, §2
# For ARE, the concentration that triggered an induction ratio of 1.5 (ECIR1.5) was used as the benchmark value, as detailed in Text S2.5. IC10 values also served as a threshold for data analysis in all assays; only concentrations below IC10 were considered when deriving EC10 or ECIR1.5. […]
# as §3, §4, §5
# 2% charcoal-stripped FBS, and 100 U/mL penicillin-streptomycin. MitoOxTox and AhR assay medium was comprised of 90% DMEM with GlutaMAX, supplemented with 10% FBS, and 100 U/mL penicillin-streptomycin. […]
# as §6
# 6500 cells/well, ERα: 5000 cells/well. White 384-well plates with a clear bottom (Product No.
# NYC, U.S.) for AhR: 3250 cells/well. Black Collagen I coated plates were used (Product No.
# S2.3: Chemical Dosing and Assay Analysis Procedures. The dosing procedure and high-throughput assay workflow have been described in detail before. 9 The dosing concentrations […]
# Stock solutions were then either
# [3] = Acidity constant (pKa) measurement, Sirius T3 UV-metric, and speciation at pH 7.4; conditions: for Double negative form (pH = 7.40) / Negative form (pH = 7.40) / Neutral form (pH = 7.40) / αneutral % (fraction of neutral species): from experimental pKa; for αneutral % (fraction of neutral species): pH 7.4; for pKa: pKa (Acid)
# Protocol: Physicochemical properties provide input parameters for the baseline toxicity model. Acidity constants (pK a) and octanol–water partition constants of the neutral species (K ow) were measured with a Sirius T instrument from Pion Inc. (Sussex, UK) (Text S1.2 and Table S1). A detailed description of the pK a and K ow measurements can be found in literature. , […]
# S1.2: pKa and log Kow measurements […]
# titrator (Pion Inc., Sussex, U.K.). A detailed description of the experimental procedure is available in the literature.1 In brief, each sample was prepared by mixing 5 µL of a 10 mM dimethyl sulfoxide (DMSO) stock solution with 25 µL of a phosphate buffer solution (14.4 mM […]
# A reference vial containing 5 µL of DMSO
# (Roth, A994-100 ML) and 25 µL of phosphate buffer was analyzed alongside each sample.
# The pKa values were determined using the automated UV-metric pKa protocol within the Sirius T3 Control software (version 2.0.0.0.). Each sample was subjected to three consecutive […]
# from 2 to 12 by stepwise addition of 0.5 M HCl or 0.5 M potassium hydroxide while recording […]
# UV absorbance. […]
# To ensure reproducibility, measurements were conducted on at least two
# [4] = Arec32, read-out: EC10, MMP (M)
# [5] = Arec32, read-out: EC10, linear transformed
Structure (SMILES),"EC10, linear [1]",logEC10 [1],"EC10, linear [2]",logEC10 [2],Double negative form (pH = 7.40) [3] [%],Negative form (pH = 7.40) [3] [%],Neutral form (pH = 7.40) [3] [%],αneutral % (fraction of neutral species) [3] [%],"EC10 ([2]; Arec32, read-out: EC10, MMP) [M]","EC10 [2, 4] [M]","EC10 ([2]; Arec32, read-out: EC10, linear) [M]","EC10 [2, 5] [M]","EC10 ([2]; Arec32, read-out: logEC10) [M]",Specificity ratio (SRbaseline) SRMMP [2],Specificity ratio (SRcytotoxicity) SRMMP [2],Relative effect potency REPMMP [2],pKa (Acid) [3],pKa [3],other results
"CC1(C)C(O)C(C)(C)C1O (racemic) [r-TMCD, 2,2,4,4-Tetramethyl-1,3-cyclobutanediol (racemate)]",no effect,no effect,no effect,no effect,0,0,100,100,,,,,,,,,,,
"O=S(=O)(c1ccc(O)cc1)c1ccccc1O [2,4-BPS, 2,4'-Dihydroxydiphenyl sulfone]",no effect,no effect,,,5,52,43,43,5.9e-05,5.9e-05,4.26e-05,5.93e-05,5.89e-05,11.47,14.98,0.47,8.43,7.31,
"CC(C)(c1ccc(OCC2CO2)cc1)c1ccc(OCC2CO2)cc1 (centres unmarked) [BADGE, Bisphenol A diglycidyl ether]",no effect,no effect,no effect,no effect,0,0,100,100,,,,9.1e-05,,,,,,,
"CC(C)CC(C)(c1ccc(O)cc1)c1ccc(O)cc1 [BP-MIBK, 4,4'-(1,3-Dimethylbutylidene)diphenol]",no effect,no effect,,,,,,,1.14e-05,1.14e-05,7.7e-06,1.12e-05,1.15e-05,,,,,,
"CC(C)(c1ccc(O)cc1)c1ccc(O)cc1 [BPA, 4,4'-(Propane-2,2-diyl)diphenol, reference compound]",no effect,no effect,,,9.99e-6,,100,100,2.8e-05,2.8e-05,2.1e-05,2.79e-05,2.82e-05,0.92,2.92,1.00,9.85,8.78,"PPARγ activation ([1]; at concentrations up to IC10): did not activate PPARγ; EC10 (MMP inhibition) [2]: 28 µM; log(1/EC10) MMP ([2]; input of the ToxPi score, values up to 1.00): 0.71; SR (MMP inhibition) ([2]; specificity ratio): 3"
"Oc1ccc(C(c2ccc(O)cc2)(C(F)(F)F)C(F)(F)F)cc1 [BPAF, 4,4'-(1,1,1,3,3,3-Hexafluoropropane-2,2-diyl)diphenol]",no effect,no effect,,,0.0417,4.47,95,,5.32e-06,5.32e-06,3.05e-06,5.27e-06,5.37e-06,,,,8.73,9.43,
